Residues, ends and D or L forms follow the SMILES beside them.
Target: Nociceptin receptor (Mus musculus, UniProt P35377)
Sequence (P35377 whole entry): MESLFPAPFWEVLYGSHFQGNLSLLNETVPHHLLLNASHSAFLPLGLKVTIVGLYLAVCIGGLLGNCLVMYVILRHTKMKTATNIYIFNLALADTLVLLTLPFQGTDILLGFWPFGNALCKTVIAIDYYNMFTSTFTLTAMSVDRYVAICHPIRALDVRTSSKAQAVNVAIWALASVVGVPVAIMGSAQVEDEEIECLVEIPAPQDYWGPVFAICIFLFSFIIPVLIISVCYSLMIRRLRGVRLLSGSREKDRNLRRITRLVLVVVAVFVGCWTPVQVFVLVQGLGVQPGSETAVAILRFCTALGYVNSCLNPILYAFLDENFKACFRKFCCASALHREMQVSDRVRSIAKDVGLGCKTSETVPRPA

SMILES | Ki [nM]
CC(=O)N[C@@H](CCCNC(=N)N)C(=O)N[C@@H](Cc1ccc(O)cc1)C(=O)N[C@@H](Cc1ccc(O)cc1)C(=O)N[C@@H](CCCCN)C(=O)N[C@@H](Cc1c[nH]c2ccccc12)C(=O)N[C@@H](CCCN=C(N)N)C(N)=O [Ac-RYYKWR-NH2] (Ac-RYYKWR-NH2) | 1.47
CC(=O)N[C@@H](CCCNC(=N)N)C(=O)N[C@@H](Cc1ccc(O)cc1)C(=O)N[C@@H](Cc1ccc(O)cc1)C(=O)N[C@@H](CCCNC(=N)N)C(=O)N[C@@H](Cc1c[nH]c2ccccc12)C(=O)N[C@@H](CCCN=C(N)N)C(N)=O [Ac-RYYRWR-NH2] (Ac-RYYRWR-NH2) | 0.6
CC(=O)N[C@@H](CCCNC(=N)N)C(=O)N[C@@H](Cc1ccc(O)cc1)C(=O)N[C@@H](Cc1ccc(O)cc1)C(=O)N[C@@H](CCCNC(=N)N)C(=O)N[C@@H](Cc1c[nH]c2ccccc12)C(=O)N[C@@H](CCCCN)C(N)=O [CAS_200959-47-3] (Ac-RYYRWK-NH2) | 0.71
CC[C@H](C)[C@H](NC(=O)[C@H](CCCN=C(N)N)NC(=O)[C@H](Cc1ccc(O)cc1)NC(=O)[C@H](Cc1ccc(O)cc1)NC(=O)[C@H](CCCN=C(N)N)NC(C)=O)C(=O)N[C@@H](CCCCN)C(N)=O [CAS_200959-48-4] | 1.5
CC(C)C[C@H](NC(=O)[C@H](CCCCN)NC(=O)[C@H](CCCN=C(N)N)NC(=O)[C@H](C)NC(=O)[C@H](CO)NC(=O)[C@H](CCCCN)NC(=O)[C@H](CCCN=C(N)N)NC(=O)[C@H](C)NC(=O)CNC(=O)[C@@H](NC(=O)[C@H](Cc1ccccc1)NC(=O)CNC(=O)CNC(=O)[C@@H](N)Cc1ccccc1)[C@@H](C)O)C(=O)N[C@@H](C)C(=O)N[C@@H](CC(N)=O)C(=O)N[C@@H](CCC(N)=O)C(=O)O [OFQ 1-17] | 0.43

Source: BindingDB's records for PubMed 9353393 (Torrey Pines Institute For Molecular Studies, 1997)
